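Following 48 hours of exposure in 96-well plates, responses at five concentrations were used to interpolate endpoints linearly. TGI marks complete inhibition of growth.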
Columns and labels:
Assay in all cases: NCI-60 cell line screen, 48 h
HOP-62 NSCLC = system: HOP-62 NSCLC
DMS 273 small cell lung = system: DMS 273 small cell lung
RPMI-8226 leukemia = system: RPMI-8226 leukemia
SW-620 colon = system: SW-620 colon
UO-31 renal = system: UO-31 renal
SF-295 CNS = system: SF-295 CNS
SK-OV-3 ovarian = system: SK-OV-3 ovarian
ACHN renal = system: ACHN renal
SNB-19 CNS = system: SNB-19 CNS
KM20L2 colon = system: KM20L2 colon
M14 melanoma = system: M14 melanoma
SR leukemia = system: SR leukemia
SF-539 CNS = system: SF-539 CNS
NCI-H226 lung = system: NCI-H226 lung
HOP-92 NSCLC = system: HOP-92 NSCLC
SNB-78 CNS = system: SNB-78 CNS
U251 CNS = system: U251 CNS
NCI-H460 lung = system: NCI-H460 lung
HCC-2998 colon = system: HCC-2998 colon
HT29 colon = system: HT29 colon
MALME-3M melanoma = system: MALME-3M melanoma
SK-MEL-5 melanoma = system: SK-MEL-5 melanoma
HCT-116 colon = system: HCT-116 colon
XF 498 CNS = system: XF 498 CNS
K-562 leukemia = system: K-562 leukemia
A549 NSCLC = system: A549 NSCLC
COLO 205 colon = system: COLO 205 colon
SF-268 CNS = system: SF-268 CNS
786-0 renal = system: 786-0 renal
EKVX NSCLC = system: EKVX NSCLC
CCRF-CEM leukemia = system: CCRF-CEM leukemia
SNB-75 CNS = system: SNB-75 CNS
M19-MEL melanoma = system: M19-MEL melanoma
HOP-18 NSCLC = system: HOP-18 NSCLC
LOX IMVI melanoma = system: LOX IMVI melanoma
RXF 393 renal = system: RXF 393 renal
OVCAR-8 ovarian = system: OVCAR-8 ovarian
IGROV1 ovarian = system: IGROV1 ovarian
NCI-H23 lung = system: NCI-H23 lung
OVCAR-4 ovarian = system: OVCAR-4 ovarian
MOLT-4 leukemia = system: MOLT-4 leukemia
HCT-15 colon = system: HCT-15 colon
HL-60(TB) leukemia = system: HL-60(TB) leukemia
A498 renal = system: A498 renal
UACC-257 melanoma = system: UACC-257 melanoma
UACC-62 melanoma = system: UACC-62 melanoma
OVCAR-3 ovarian = system: OVCAR-3 ovarian
SK-MEL-28 melanoma = system: SK-MEL-28 melanoma
LXFL 529 NSCLC = system: LXFL 529 NSCLC
DLD-1 colon = system: DLD-1 colon
OVCAR-5 ovarian = system: OVCAR-5 ovarian
SK-MEL-2 melanoma = system: SK-MEL-2 melanoma
TK-10 renal = system: TK-10 renal
KM12 colon = system: KM12 colon
DMS 114 small cell lung = system: DMS 114 small cell lung
SN12C renal = system: SN12C renal
MDA-MB-435 = system: MDA-MB-435
NCI/ADR-RES ovarian = system: NCI/ADR-RES ovarian
RXF-631 renal = system: RXF-631 renal
HS 578T breast = system: HS 578T breast
PC-3 prostate = system: PC-3 prostate
DU-145 prostate = system: DU-145 prostate
NCI-H522 lung = system: NCI-H522 lung
MCF7 breast = system: MCF7 breast
MDA-N = system: MDA-N
MDA-MB-231 breast = system: MDA-MB-231 breast
CAKI-1 renal = system: CAKI-1 renal
T-47D breast = system: T-47D breast
BT-549 breast = system: BT-549 breast

Question: CCOC(=O)N1C2C=C(C)C(ON2C(=O)c2ccccc2)C2C(C)C(=O)N21 (centres undefined) was tested. Which TGI (HOP-62 NSCLC) did it give?
Answer: > 100 µM

Question: And the TGI (DMS 273 small cell lung)?
Answer: > 100 µM

Question: And the TGI (RPMI-8226 leukemia)?
Answer: > 100 µM

Question: And the TGI (SW-620 colon)?
Answer: > 100 µM

Question: And the TGI (UO-31 renal)?
Answer: > 100 µM

Question: And the TGI (SF-295 CNS)?
Answer: > 100 µM

Question: And the TGI (SK-OV-3 ovarian)?
Answer: > 100 µM

Question: And the TGI (ACHN renal)?
Answer: > 100 µM

Question: What about the TGI (SNB-19 CNS) of the same molecule?
Answer: > 100 µM

Question: What about the TGI (KM20L2 colon) of the same molecule?
Answer: > 100 µM

Question: What about the TGI (M14 melanoma) of the same molecule?
Answer: > 100 µM

Question: What about the TGI (SR leukemia) of the same molecule?
Answer: > 100 µM

Question: What about the TGI (SF-539 CNS) of the same molecule?
Answer: > 100 µM

Question: What about the TGI (NCI-H226 lung) of the same molecule?
Answer: > 100 µM

Question: And the TGI (HOP-92 NSCLC)?
Answer: > 100 µM

Question: What about the TGI (SNB-78 CNS) of the same molecule?
Answer: > 100 µM

Question: And the TGI (U251 CNS)?
Answer: > 100 µM

Question: And the TGI (NCI-H460 lung)?
Answer: > 100 µM

Question: What about the TGI (HCC-2998 colon) of the same molecule?
Answer: > 100 µM

Question: And the TGI (HT29 colon)?
Answer: > 100 µM

Question: And the TGI (MALME-3M melanoma)?
Answer: > 100 µM

Question: And the TGI (SK-MEL-5 melanoma)?
Answer: > 100 µM

Question: What about the TGI (HCT-116 colon) of the same molecule?
Answer: > 100 µM

Question: What about the TGI (XF 498 CNS) of the same molecule?
Answer: > 100 µM

Question: What about the TGI (K-562 leukemia) of the same molecule?
Answer: > 100 µM

Question: And the TGI (A549 NSCLC)?
Answer: > 100 µM

Question: And the TGI (COLO 205 colon)?
Answer: > 100 µM

Question: What about the TGI (SF-268 CNS) of the same molecule?
Answer: > 100 µM

Question: What about the TGI (786-0 renal) of the same molecule?
Answer: > 100 µM

Question: And the TGI (EKVX NSCLC)?
Answer: > 100 µM

Question: What about the TGI (CCRF-CEM leukemia) of the same molecule?
Answer: > 100 µM

Question: And the TGI (SNB-75 CNS)?
Answer: > 100 µM

Question: And the TGI (M19-MEL melanoma)?
Answer: > 100 µM

Question: And the TGI (HOP-18 NSCLC)?
Answer: > 100 µM

Question: What about the TGI (LOX IMVI melanoma) of the same molecule?
Answer: > 100 µM

Question: And the TGI (RXF 393 renal)?
Answer: > 100 µM

Question: What about the TGI (OVCAR-8 ovarian) of the same molecule?
Answer: > 100 µM

Question: And the TGI (IGROV1 ovarian)?
Answer: > 100 µM

Question: And the TGI (NCI-H23 lung)?
Answer: > 100 µM

Question: And the TGI (OVCAR-4 ovarian)?
Answer: > 100 µM

Question: And the TGI (MOLT-4 leukemia)?
Answer: > 100 µM

Question: What about the TGI (HCT-15 colon) of the same molecule?
Answer: > 100 µM

Question: What about the TGI (HL-60(TB) leukemia) of the same molecule?
Answer: > 100 µM

Question: What about the TGI (A498 renal) of the same molecule?
Answer: > 100 µM

Question: What about the TGI (UACC-257 melanoma) of the same molecule?
Answer: > 100 µM

Question: And the TGI (UACC-62 melanoma)?
Answer: > 100 µM

Question: What about the TGI (OVCAR-3 ovarian) of the same molecule?
Answer: > 100 µM

Question: And the TGI (SK-MEL-28 melanoma)?
Answer: > 100 µM

Question: What about the TGI (LXFL 529 NSCLC) of the same molecule?
Answer: > 100 µM

Question: And the TGI (DLD-1 colon)?
Answer: > 100 µM

Question: What about the TGI (OVCAR-5 ovarian) of the same molecule?
Answer: > 100 µM

Question: And the TGI (SK-MEL-2 melanoma)?
Answer: > 100 µM

Question: What about the TGI (TK-10 renal) of the same molecule?
Answer: > 100 µM

Question: And the TGI (KM12 colon)?
Answer: > 100 µM

Question: What about the TGI (DMS 114 small cell lung) of the same molecule?
Answer: > 100 µM

Question: And the TGI (SN12C renal)?
Answer: > 100 µM

Question: How did the TGI (HOP-62 NSCLC) turn out when CCN(CC)c1ccc(/C=C2/C[N+](C)(C)C/C(=C/c3ccc(N(CC)CC)cc3)C2=O)cc1 was run?
Answer: 40.7 µM

Question: What about the TGI (RPMI-8226 leukemia) of the same molecule?
Answer: 1.24 µM

Question: And the TGI (SW-620 colon)?
Answer: 13.5 µM

Question: What about the TGI (UO-31 renal) of the same molecule?
Answer: > 100 µM

Question: And the TGI (SF-295 CNS)?
Answer: > 90.6 µM

Question: And the TGI (SK-OV-3 ovarian)?
Answer: > 78.5 µM

Question: What about the TGI (ACHN renal) of the same molecule?
Answer: > 100 µM

Question: And the TGI (MDA-MB-435)?
Answer: 3.69 µM

Question: What about the TGI (SNB-19 CNS) of the same molecule?
Answer: 19.4 µM

Question: What about the TGI (KM20L2 colon) of the same molecule?
Answer: 12.9 µM

Question: And the TGI (M14 melanoma)?
Answer: 7.07 µM

Question: And the TGI (SR leukemia)?
Answer: 3.52 µM

Question: What about the TGI (SF-539 CNS) of the same molecule?
Answer: 6.19 µM

Question: What about the TGI (NCI-H226 lung) of the same molecule?
Answer: 17.2 µM

Question: What about the TGI (NCI/ADR-RES ovarian) of the same molecule?
Answer: > 100 µM

Question: What about the TGI (HOP-92 NSCLC) of the same molecule?
Answer: 4.8 µM

Question: And the TGI (SNB-78 CNS)?
Answer: 9.62 µM

Question: And the TGI (U251 CNS)?
Answer: 9.24 µM

Question: And the TGI (NCI-H460 lung)?
Answer: 15 µM

Question: What about the TGI (HCC-2998 colon) of the same molecule?
Answer: 6.25 µM

Question: What about the TGI (HT29 colon) of the same molecule?
Answer: 5.2 µM

Question: What about the TGI (MALME-3M melanoma) of the same molecule?
Answer: 4.38 µM

Question: And the TGI (RXF-631 renal)?
Answer: > 100 µM

Question: What about the TGI (SK-MEL-5 melanoma) of the same molecule?
Answer: 3.62 µM

Question: What about the TGI (HCT-116 colon) of the same molecule?
Answer: 7.77 µM

Question: And the TGI (HS 578T breast)?
Answer: 11.2 µM

Question: And the TGI (XF 498 CNS)?
Answer: 6.59 µM

Question: And the TGI (PC-3 prostate)?
Answer: 35.7 µM

Question: And the TGI (K-562 leukemia)?
Answer: 7.91 µM

Question: And the TGI (A549 NSCLC)?
Answer: > 100 µM

Question: And the TGI (COLO 205 colon)?
Answer: 2.69 µM

Question: And the TGI (SF-268 CNS)?
Answer: 11.2 µM

Question: And the TGI (786-0 renal)?
Answer: 13.6 µM

Question: And the TGI (EKVX NSCLC)?
Answer: 75.7 µM

Question: What about the TGI (CCRF-CEM leukemia) of the same molecule?
Answer: 3.42 µM

Question: And the TGI (SNB-75 CNS)?
Answer: 8.88 µM

Question: What about the TGI (DU-145 prostate) of the same molecule?
Answer: > 50.6 µM

Question: And the TGI (M19-MEL melanoma)?
Answer: 2.84 µM

Question: And the TGI (HOP-18 NSCLC)?
Answer: 25 µM

Question: What about the TGI (NCI-H522 lung) of the same molecule?
Answer: 7.74 µM

Question: And the TGI (LOX IMVI melanoma)?
Answer: 6.16 µM

Question: What about the TGI (MCF7 breast) of the same molecule?
Answer: 6.04 µM

Question: What about the TGI (RXF 393 renal) of the same molecule?
Answer: 10.3 µM

Question: And the TGI (OVCAR-8 ovarian)?
Answer: 14.7 µM

Question: What about the TGI (IGROV1 ovarian) of the same molecule?
Answer: 6.57 µM

Question: What about the TGI (MDA-N) of the same molecule?
Answer: 3.56 µM

Question: And the TGI (NCI-H23 lung)?
Answer: 10.3 µM

Question: And the TGI (MDA-MB-231 breast)?
Answer: 5.87 µM

Question: What about the TGI (OVCAR-4 ovarian) of the same molecule?
Answer: 13.8 µM

Question: What about the TGI (MOLT-4 leukemia) of the same molecule?
Answer: 4.83 µM

Question: And the TGI (HCT-15 colon)?
Answer: > 100 µM

Question: What about the TGI (HL-60(TB) leukemia) of the same molecule?
Answer: 2.16 µM

Question: What about the TGI (A498 renal) of the same molecule?
Answer: > 42.2 µM

Question: What about the TGI (UACC-257 melanoma) of the same molecule?
Answer: 6 µM

Question: And the TGI (UACC-62 melanoma)?
Answer: 4.84 µM

Question: What about the TGI (OVCAR-3 ovarian) of the same molecule?
Answer: 7.31 µM

Question: And the TGI (SK-MEL-28 melanoma)?
Answer: 4.09 µM

Question: And the TGI (LXFL 529 NSCLC)?
Answer: 2.81 µM

Question: What about the TGI (DLD-1 colon) of the same molecule?
Answer: > 100 µM

Question: And the TGI (OVCAR-5 ovarian)?
Answer: 50.4 µM

Question: And the TGI (CAKI-1 renal)?
Answer: > 100 µM

Question: What about the TGI (SK-MEL-2 melanoma) of the same molecule?
Answer: 3.92 µM

Question: And the TGI (TK-10 renal)?
Answer: 61.8 µM

Question: And the TGI (KM12 colon)?
Answer: 2.91 µM

Question: And the TGI (DMS 114 small cell lung)?
Answer: 3.38 µM

Question: And the TGI (T-47D breast)?
Answer: 11.3 µM

Question: And the TGI (BT-549 breast)?
Answer: 3.43 µM

Question: And the TGI (SN12C renal)?
Answer: 16.4 µM
